In US11820782B2, “Salt forms of amino pyrazine purine based selective kinase inhibitor” (FTG BIO LLC, priority 2018, dated 2023):
≈ marks a conversion by molar mass, not a printed value. Read-outs that look alike come from different tables or passages of the source.

How the values were obtained:
[1] = pH vs solubility study (RP-HPLC); type: physicochemical
Procedure: In 2 mL volume of buffers (ranging from pH 1.2 to 7.4) and purified water, compound (either free base or esylate or oxalate) was added with increments until the compound doesn't dissolve further in the medium and compound remains undissolved or excess in the solution. The samples were kept for overnight at ambient room temperature to saturate/equilibrate. The dispersions were filtered through 0.45 μm PVDF or nylon membrane filters and the filtrates were analysed using RP-HPLC for determination of solubility of compounds in various buffers and purified water.

[2] = Equilibrium solubility in pH 6.8 0.01M phosphate buffer by HPLC; type: physicochemical; conditions: pH6.8 0.01M potassium dihydrogen phosphate buffer
[3] = Hygroscopicity (dynamic vapor sorption); type: physicochemical; conditions: normal room temperature / ambient conditions
Procedure: Sorption isotherms were obtained using a VTI-SA+-moisture sorption analyzer from TA instruments. The sample temperature was maintained at 25° C. by the instrument controls. The humidity was controlled by mixing the streams of dry and wet nitrogen, with a total flow rate of 200 mL/minute. The weight change of the sample as a function of % RH was constantly monitored by microbalance.
Typically, 5 to 20 mg of the sample was weighed under ambient conditions in a tared mesh stainless steel basket. The sample was loaded and unloaded at 40% RH and 25° C. A moisture sorption isotherm was performed as outlined. The standard isotherm was performed at 25° C. at 10% RH intervals over a 0 to 90% RH range. Sample was dried at 40° C. from ambient room conditions to 0% RH.

[4] = Qualitative (kinetic/visual) solubility in solvents/media; type: physicochemical
Procedure: 2 mg quantity of API was taken in glass vial and small portions of solvent was added with vortexing till the clear solution is obtained (at room temperature or heating up to 50-60° C.).
Weighed quantity of API was taken in glass vial and small portions of solvent was added with vortexing till the clear solution is obtained (at room temperature or heating up to 50-60° C.).

[5] = Microsomal stability, MLM; type: in vitro ADME; conditions: 3 μM (n = 3), mice liver microsomes
Procedure: (§1) All in vitro experiments like protein binding, microsomal stability, cell cytotoxicity were performed as per study protocols of respective experiments.

Human Plasma = experiment: Plasma protein binding, human; type: in vitro ADME
Procedure: as §1

[6] = system: MDA-MB-231 (breast cancer); experiment: Anti-proliferative effect, MDA-MB-231; type: cell-based
Procedure: as §1

[7] = Microsomal stability, PHLM; type: in vitro ADME; conditions: pooled human liver microsomes
Procedure: as §1

[8] = 1 week stability of shortlisted salts at 40° C./75% RH, open; type: physicochemical; conditions: for pH of 2% w/v aqueous dispersion/solution / state of 2% w/v aqueous dispersion/solution: 2% w/v in water; for % purity / XRD: after 7 days at 40° C./75% RH, open; for % purity: HPLC; for XRD: physical form vs initial
[9] = Intravenous and per oral pharmacokinetics in male Balb/c mice; type: in vivo; conditions: for Bioavailability (% F): PO dose (50 mg/kg) vs IV 10 mg/kg
Procedure: The husbandry conditions were maintained as described in animal facility SOPs during the study period. Animals procured were quarantined for 7 days followed by acclimatization for 5 days. The study was carried out for two days. Male Balb/c mice of age 10-12 weeks (18-25 g) and male Sprague Dawley rats 8-10 weeks (220-280 g) were used. The food was with held for a period of 4-12 hr prior to dosing and returned to all animals 4h post dosing and water supplied ad libitum. The doses of FT1518 were as follows: Mice: 10 mg/kg intravenous (i.v) and 50 mg/kg oral (p.o); rat—5 mg/kg intravenous (i.v) and 10 mg/kg oral (p.o). The formulation used in i.v and p.o studies were 10% dimethylsulfoxide (DMSO)+30% polyethyleneglycol 400 (PEG400)+60% water and 0.5% methylcellulose (MC)+0.1% tween 80. Blood was collected at the predetermined time points in mice (cardiac puncture) and Jugular vein (rats) over a period of 24h in eppendorf tubes containing K2EDTA as anticoagulant. The plasma was isolated from the blood and stored at −80° C. until bioanalysis. Species: BALB/C mice Gender: Male Dose: IV (10 mg/kg), Single dose • PO (50 mg/kg), single dose Formulation: • IV—DMSO: PEG400:Water (10:30:60 v/v) • PO— 0.5% methylcellulose and 0.1% Tween 80 in water Sampling Time Points: • IV: 5 min, 30 min, 1 h, 2, 4, 8 and 24 h post dose • PO: 10 min, 30 min, 1 h, 2, 4, 8 and 24 h post dose. PK analysis: Phoenix software (Pharsight product). Noncompartmental Analysis (NCA) was used to estimate the PK parameters. FIG. 56 depicts a pharmacokinetic profile of FT-1518 base in mice. Table 31 summarizes PK parameters used in a pharmacokinetic profile with intravenous dose in mice and Table 32 summarizes PK parameters used in a pharmacokinetic profile with per oral dose in mice.

[10] = Microsomal stability, RLM; type: in vitro ADME; conditions: rat liver microsomes
Procedure: as §1

[11] = system: U-87 (giloblastoma, epithelial); experiment: Anti-proliferative effect, U-87; type: cell-based
Procedure: as §1

[12] = PO dose (50 mg/kg), single dose, male Balb/c mice, 50 mg/kg
[13] = male, Balb/c, mouse, plasma, po, 50 mg/kg, PO dose (50 mg/kg), single dose, male Balb/c mice

**Q.** With CCC(CC)n1cnc2c(-c3cnc(N)cn3)nc(N3CC4CCC(C3)O4)nc21 [FT-1518-Oxalate] as the compound, how does the Solubility ([1]; Water, overnight, ambient room temperature, listed as Oxalate salt) read?
**A.** The Solubility was 11.03 mg/mL.

**Q.** What about the Solubility ([1]; pH 1.2 HCl, listed as Oxalate salt) of the same compound?
**A.** Its Solubility is greater than 52.76 mg/mL.

**Q.** What about the Solubility ([1]; pH 3.0 Citrate buffer, listed as Oxalate salt) of the same compound?
**A.** The Solubility was 20.25 mg/mL.

**Q.** What about the Solubility ([1]; pH 4.0 Acetate buffer, listed as Oxalate salt) of the same compound?
**A.** Its Solubility is 1.05 mg/mL.

**Q.** And the Solubility ([1]; pH 5.0 Acetate buffer, listed as Oxalate salt)?
**A.** Its Solubility is 0.14 mg/mL.

**Q.** And the Solubility ([1]; pH 6.8 Phosphate buffer, listed as Oxalate salt)?
**A.** Its Solubility is 5.28 mg/mL.

**Q.** And the Solubility ([1]; pH 7.4 Phosphate buffer, listed as Oxalate salt)?
**A.** The Solubility was 0.76 mg/mL.

**Q.** What about the “Solubility in pH 6.8 buffer” value [2] of the same compound?
**A.** The value was 10.21 mg/mL.

**Q.** And the hygroscopicity [3]?
**A.** Its hygroscopicity is “non-hygroscopic”.

**Q.** What about the Solubility ([4]; Dimethyl sulphoxide) of the same compound?
**A.** Its Solubility is greater than 100000 µg/mL.

**Q.** And the Solubility ([4]; N-methyl pyrrolidone)?
**A.** Its Solubility is greater than 100000 µg/mL.

**Q.** And the Solubility ([4]; dichloromethane)?
**A.** The Solubility was less than 1000 µg/mL.

**Q.** And the Solubility ([4]; ethyl acetate)?
**A.** Its Solubility is less than 1000 µg/mL.

**Q.** And the Solubility ([4]; n-hexane)?
**A.** Its Solubility is less than 1000 µg/mL.

**Q.** And the Solubility ([4]; toluene)?
**A.** Its Solubility is less than 1000 µg/mL.

**Q.** And the “Invitro T1/2, MLM” value [5]?
**A.** The value was 46 min.

**Q.** And the “plasma protein binding, human plasma” value (Human Plasma)?
**A.** The value was “✓ FT1518, FT1518-Esylate and FT1518-Oxalate showed moderate plasma protein binding in both mouse and human plasma”.

**Q.** And the “% Bound, Human Plasma” value (Human Plasma; 10 μM (n = 4))?
**A.** The value was 95.54%.

**Q.** What about the IC50 [6] of the same compound?
**A.** The IC50 was greater than 10 µM.

**Q.** What about the “Invitro T1/2, PHLM” value ([7]; 3 μM (n = 3)) of the same compound?
**A.** Its value is greater than 60 min.

**Q.** What about the “stability in PHLM” value [7] of the same compound?
**A.** The value was “✓ FT1518, FT 1518-Esylate and FT1518-Oxalate was highly stable in PHLM and RLM”.

**Q.** And the “pH of 2% w/v aqueous dispersion/solution” value [8]?
**A.** The value was 2.6.

**Q.** What about the “state of 2% w/v aqueous dispersion/solution” value [8] of the same compound?
**A.** The value was “dispersion”.

**Q.** What about the “% purity” value [8] of the same compound?
**A.** Its value is 97.04%.

**Q.** What about the XRD [8] of the same compound?
**A.** The XRD was “Same as initial form”.

**Q.** And the “bioavailability in comparison to esylate salt and base” value ([9]; PO 50 mg/kg, Balb/c male mice)?
**A.** Its value is “FT-1518-oxalate salt showed high bioavailability in comparison to esylate salt and base”.

**Q.** And the “Bioavailability (% F)” value ([9]; male Balb/c mice)?
**A.** The value was 76 % F.

**Q.** What about the “AUC0-∞” value [9, 12] of the same compound?
**A.** The value was 28876 ± 7762 ng·h/mL.

**Q.** What about the Cmax [9, 12] of the same compound?
**A.** The Cmax was 8444 ± 1473 ng/mL.

**Q.** What about the T1/2 [9, 12] of the same compound?
**A.** Its T1/2 is 3.5 ± 1.9 h.

**Q.** And the Tmax [9, 12]?
**A.** Its Tmax is 18 ± 12 min.

**Q.** And the “Invitro T1/2, RLM” value ([10]; 3 μM (n = 3))?
**A.** Its value is greater than 60 min.

**Q.** And the “stability in RLM” value [10]?
**A.** Its value is “✓ FT1518, FT 1518-Esylate and FT1518-Oxalate was highly stable in PHLM and RLM”.

**Q.** And the IC50 [11]?
**A.** Its IC50 is greater than 10 µM.

**Q.** Which results are given for CCC(CC)n1cnc2c(-c3cnc(N)cn3)nc(N3CC4CCC(C3)O4)nc21 [FT-1518-Esylate]?
**A.** Solubility ([1]; Water, overnight, ambient room temperature, listed as Esylate salt): >539.39 mg/mL; Solubility ([1]; pH 1.2 HCl, listed as Esylate salt): >587.07 mg/mL; Solubility ([1]; pH 3.0 Citrate buffer, listed as Esylate salt): >76.38 mg/mL; Solubility ([1]; pH 4.0 Acetate buffer, listed as Esylate salt): 53.25 mg/mL; Solubility ([1]; pH 5.0 Acetate buffer, listed as Esylate salt): 0.84 mg/mL; Solubility ([1]; pH 6.8 Phosphate buffer, listed as Esylate salt): 79.08 mg/mL; Solubility ([1]; pH 7.4 Phosphate buffer, listed as Esylate salt): 40.8 mg/mL; Solubility in pH 6.8 buffer [2]: 77.98 mg/mL; hygroscopicity [3]: non-hygroscopic; Solubility ([4]; N-methyl pyrrolidone, organic solvent or mixture, thermodynamic from solid, N-methyl pyrrolidone, read-out: Solubility): > 100000 µg/mL; Solubility ([4]; Tetrahydrofuran): <1000 µg/mL; Solubility ([4]; acetone, organic solvent or mixture, thermodynamic from solid, Acetone, read-out: Solubility): < 1000 µg/mL; Solubility ([4]; acetonitrile, organic solvent or mixture, thermodynamic from solid, Acetonitrile, read-out: Solubility): > 100000 µg/mL; Solubility ([4]; dimethyl sulphoxide, organic solvent or mixture, thermodynamic from solid, Dimethyl sulphoxide, read-out: Solubility): > 100000 µg/mL; Solubility ([4]; ethyl acetate, organic solvent or mixture, thermodynamic from solid, Ethyl acetate, read-out: Solubility): < 1000 µg/mL; Solubility ([4]; isopropyl alcohol (2-propanol), organic solvent or mixture, thermodynamic from solid, Isopropyl alcohol (2-propanol), read-out: Solubility): 10000 to 25000 µg/mL (≈ 25300 to 63400 µM); Solubility ([4]; n-hexane, organic solvent or mixture, thermodynamic from solid, n-hexane, read-out: Solubility): < 1000 µg/mL; Solubility ([4]; toluene, organic solvent or mixture, thermodynamic from solid, Toluene, read-out: Solubility): < 1000 µg/mL; half-life at 3 μM ([5]; mouse, mouse liver microsomes, read-out: Invitro T1/2, MLM): 24 min; plasma protein binding, human plasma (Human Plasma): ✓ FT1518, FT1518-Esylate and FT1518-Oxalate showed moderate plasma protein binding in both mouse and human plasma; IC50 ([6]; Homo sapiens): > 10 µM; half-life at 3 μM ([7]; 3 μM (n = 3), read-out: Invitro T1/2, PHLM): > 60 min; stability in PHLM [7]: ✓ FT1518, FT 1518-Esylate and FT1518-Oxalate was highly stable in PHLM and RLM; pH of 2% w/v aqueous dispersion/solution [8]: 2.1; state of 2% w/v aqueous dispersion/solution [8]: soluble; % purity [8]: 98.07%; XRD [8]: Same as initial form; Bioavailability (% F) ([9]; male Balb/c mice): 62 % F; AUC(0-inf) [9, 13]: 23700 ± 9250 ng·h/mL; half-life [9, 13]: 204 ± 72 min; Cmax ([9]; male, Balb/c, mouse, plasma, po, 50 mg/kg, PO dose (50 mg/kg), single dose, male Balb/c mice, read-out: Cmax): 8190 ± 891 ng/mL; Tmax ([9]; mouse, plasma, PO dose (50 mg/kg), single dose, male Balb/c mice, read-out: Tmax): 18 ± 12 min; half-life at 3 μM ([10]; 3 μM (n = 3), read-out: Invitro T1/2, RLM): > 60 min; stability in RLM [10]: ✓ FT1518, FT 1518-Esylate and FT1518-Oxalate was highly stable in PHLM and RLM; IC50 [11]: > 10 µM
